Test system: α5GABAA receptor cell-surface expression
Assay: Receptor cell-surface ELISA assay in cultured hippocampal neurons
Assay type: cell-based, mouse
Details: peptide 2 μM, 24 hrs, astrocyte-conditioned medium (etomidate 1 μM, 1 hr)
Method: This experimental cell culture model was used to test the effects of the inhibitory peptide on an overexpression of α5GABAA receptors on the surface of neurons. The medium from astrocytes that were treated with etomidate (1 μM, 1 hr) (conditioned medium) was collected, and the medium bathing cultured hippocampal neurons was exchanged with the astrocyte-conditioned medium. The cells were incubated at 37° C., 5% CO2 with the peptide or scramble peptide (2 μM). After 24 hrs incubation, the cells were used for receptor cell-surface ELISA assay. The cells were fixed in 4% paraformaldehyde for 20 min in the presence (permeabilized) or absence (non-permeabilized) of 1% Triton-X100. The cells, after 3 times wash with cold PBS and blocked with 5% bovine album solution, were incubated with a α5 antibody (Santa Cruz Biotech Inc.) at 4° C. overnight. The next day the cells were thoroughly washed with PBS and incubated with the horseradish peroxidase (HRP)-conjugated secondary antibody for 2 hrs. With HRP substrate added and color developed in the medium, the results were determined with microplate reader.
The cell surface expression of α5 subunit was presented as the ratio of the colorimetric reading under non-permeabilized conditions to those permeabilized conditions. Consistent with the previous report, etomidate increases α5GABAA receptor surface expression. This increase was blocked by the specific peptide, but not the scramble peptide (FIG. 6A).
For astrocyte culture, cortical astrocytes were isolated from embryonic day 18 (E18) mouse embryos. Cells were allowed to grow to confluence in MEM and 10% fetal bovine serum (FBS; Life Technologies, Grand Island, New York) for 14 d. Cells were then enzymatically dissociated with trypsin-EDTA (0.05%; Life Technologies, Grand Island, New York), and passaged three times to obtain a nearly pure astrocytic culture. Astrocytes were then plated at a density of 25,000 cells per dish. […]

For NYFTKRGWAWDGKKAL [inhibitory peptide], the “etomidate-induced increase in α5GABAA receptor surface expression” value was “blocked”.

Reference: patent US12054562B2, “Cell-permeable inhibitory agent and methods of use thereof in treatment of cognitive and mood disorders” (priority 2015, dated 2024)
